According to ChEMBL document CHEMBL3507680, “University of Dundee, Gates Library screen for HepG2 cell viability”:

Experiment: Human HepG2 cell viability assay in 384 well format
Type: toxicity, cell-based
Parameters: dose 125 nL, time 70.5 hour; cytotoxicity at 70.5 h: concentration not given beside the values
Settings: HepG2 cells, read-out: Inhibition

Compound | cytotoxicity at 70.5 h [%]
CC(C)Oc1cccc(CC(=O)NC2CCN(CC(N)=O)CC2)c1 | -10.1
COCCN1C[C@@H]2CN(c3cnccn3)C[C@@H]2C1=O | -10.9
Cc1cc(C(=O)N2CCCC(c3noc(C)n3)C2)[nH]n1 (configuration not stated) | 34.4
O=S(=O)(c1cccnc1)N1CCN(CCn2ccnc2)CC1 | -0.387
Cc1nn(C)c(C)c1NC(=O)CNC(c1ccc(F)cc1)C1CCC1 (configuration not stated) | -7.04
CC1(C)CCN(S(=O)(=O)N2CCCC(c3cccc(C(=O)O)c3)C2)CC1 (configuration not stated) | -10.5
CC(=O)NCCNC(=O)CNC1CCCN(c2ccc(C)nn2)C1 (configuration not stated) | 17.7
CC(C)N(C)S(=O)(=O)c1ccc2c(c1)CCN(C(=O)c1cnccn1)C2 | -5.23
O=C(c1ccco1)N1CCCC2(CN(Cc3ccoc3)CCO2)C1 (configuration not stated) | -0.421
Cc1cc(C)n(-c2ccc(CNCc3cccc(C#N)c3)cn2)n1 | -12.6
CCC(NS(=O)(=O)c1ccc(C(=O)NC2CC2)cc1)c1ccnn1C (configuration not stated) | -7.49
Cc1noc(C(C)C)c1C(=O)NCc1cccc(CN(C)C)c1 | -1.69
CC(C)N1CCCC(C(=O)N(C)CCCc2cnn(C)c2)C1 (configuration not stated) | -2.41
O=C1NCC[C@]12CN(Cc1nccs1)C[C@H]2c1ccccc1 | -0.358
Cc1nn(CC(=O)O)c(C)c1NS(=O)(=O)c1cccc2ccccc12 | -6.18
O=C(c1ccnnc1)N1CCN2C[C@H](OCc3ccccn3)C[C@H]2C1 | -4.04
CC(C)N1CCc2ncn(C(C)C)c2C1C(=O)NCCN1CCCC1 (configuration not stated) | -7.38
C1CN(Cc2noc(C3CC3)n2)CCN(Cc2nnc(C3CC3)o2)C1 | 15.4
CC(C)OCCS(=O)(=O)N1CCN(Cc2ccco2)CC1 | -4.45

Compound | cytotoxicity at 70.5 h [%]
O=C(NCCN1CCOCC1)c1nc(-c2ccc3[nH]ccc3c2)no1 | -30.5
O=C(c1cc(C2CC2)on1)N1C[C@H]2CC[C@](O)(c3ccc(F)cc3)[C@H]2C1 | -0.34
CCn1nc(C)c(CN2CCNCC2)c1C | -5.76
CO[C@@H](C(=O)NC1CCOCC1)c1ccccc1 | 9.39
CN(C)S(=O)(=O)c1csc(C(=O)N2CCC(C(N)=O)CC2)c1 | -7.56
O=c1ccc(-n2ccnc2)nn1CCNS(=O)(=O)c1ccc(Cl)s1 | 3.04
CCn1c(C2CCNCC2)nn(CCn2ccc(C)n2)c1=O | -21.2
CCN1CC2(CC1=O)CN(Cc1ccoc1)CCN(C(=O)C(C)C)C2 (configuration not stated) | -20.2
CCc1nc2n(n1)CC(NCC(=O)Nc1cc(C(C)(C)C)no1)CC2 (configuration not stated) | -0.0913
Cn1ccnc1NC[C@@H]1CCC[C@@H]2CN(Cc3cccnc3)C[C@@H]21 | 14.5
Cc1cccc(-c2nc(C)nn2CC(=O)N(C)C2CC2)c1 | -5.01
COCCCN1Cc2cccc(NC(=O)c3cc(F)ccc3F)c2C1 | -9.4
Cc1nc(C(=O)N2CC[C@@]3(C[C@H](NS(C)(=O)=O)CCO3)C2)cs1 | -7.15
Cc1ccc(N2Cc3nc(=O)n(C(C)C)n3C2=O)cc1 | -28.9
COCC1CC2(CCN(Cc3ccc(C)o3)CC2)CN1C(C)C (configuration not stated) | -3.1
C=C(C)CNc1nc(CS(=O)(=O)c2ccccc2)cs1 | -2.16
COc1ccc(CC(=O)NC2(C)CCS(=O)(=O)C2)cc1F (configuration not stated) | 0.396
COc1cccc(F)c1CN1CCC(c2nc(C)cc(C)n2)C1 (configuration not stated) | 14.3
NC(=O)N1CCC2(CC1)CC(=O)N(CC1CCCO1)c1ccccc12 (configuration not stated) | 5.57

Compound | cytotoxicity at 70.5 h [%]
Cc1ccc(N2CCC3(CCN(Cc4ccccn4)CC3)CC2)nn1 | -11.7
COCCO[C@H]1CCN(C(=O)c2ccno2)[C@H]1Cc1cnn(C)c1 | -0.314
Cc1cccc(NC(=O)c2nn(C3CCS(=O)(=O)C3)c3c2CCCC3)n1 (configuration not stated) | -27.2
O=C(NCC1COCc2c(-c3cccnc3)nnn2C1)c1cccs1 (configuration not stated) | -15.7
CC(C)NC(=O)NC[C@H]1OC[C@@H](NCc2ccc(F)cc2)[C@@H]1O | -4.37
Cc1cccc(OCc2nnc(SCC3CCCN(C)C3)o2)c1 (configuration not stated) | -5.28
CC(C)c1nc2cc(NC(=O)Cn3ccccc3=O)ccc2o1 | -3.88
CCc1cc(N2CCC(Nc3ccc(Cl)cn3)CC2)ncn1 | 12.5
CCc1nc(C2CCCN(C(=O)c3c(C)noc3C)C2)no1 (configuration not stated) | 20.6
Cc1cccc(-c2nc(C)nn2CC(=O)NCC(C)C)c1 | 5.13
O=C(CCc1cccnc1)N(Cc1ccsc1)CC1CCCO1 (configuration not stated) | -6.73
CC(O)CN1CCN(C(=O)CN(C)c2ccc(Cl)cn2)CC1 (configuration not stated) | -12.2
CCN(CC)CC[C@H]1CN(C(=O)C(C)(C)C)CC[C@H]1CC(=O)O | -8.97
Cc1cc(CNC(=O)NC(C)(CO)C2CC2)c(C)s1 (configuration not stated) | -5.03
O=S(=O)(N1CCCCCC1)N1CCCN(CC2CCCO2)CC1 (configuration not stated) | -1.63
O=C(c1n[nH]cc1Cl)N1CCSCC1 | -9.46
CSCC(=O)Nc1ncn(Cc2cccc(Br)c2)n1 | -8.51
CCCOCCOC(=O)c1ccc2c(c1)[nH]c(=O)n2C | 11.7
CN1CCN(C[C@@H]2CN(Cc3c(Cl)cncc3Cl)C[C@@H]2CO)CC1 | -11.7
